Where a SMILES comes first, the peptide text is derived from it. The star is where a group is joined. Myristoyl = CCCCCCCCCCCCCC(=O)*
Experiments:
Pcc [1] = assay type: cell-based, Pectobacterium carotovorum subsp. carotovorum
Pcc [2] = details: 48 h
Ech = details: 48 h
Xcc Xcc17 = details: Table 4, rich medium, up to 32 μg/ml; for MIC: 48 h, no visible growth; for MBC: spotted on rich agar 48 h, no colony
Atu C58C1 = details: Table 4, rich medium, up to 32 μg/ml; for MIC: 48 h, no visible growth; for MBC: spotted on rich agar 48 h, no colony

Molecule	membranolytic effect (SYTOX Green staining) (Pcc [1])	MBC (Pcc [2])	MIC (Pcc [2])	MBC (Ech)	MIC (Ech)	MIC (Xcc Xcc17)	MBC (Xcc Xcc17)	MIC (Atu C58C1)	MBC (Atu C58C1)
CCCCCCCCCCCCCC(=O)N[C@@H](Cc1c[nH]c2ccccc12)C(=O)N[C@@H](CCCCN)C(=O)N[C@@H](CCCCN)C(=O)N[C@@H](CC(C)C)C(=O)N[C@@H](CCCCN)C(=O)N[C@@H](CCCCN)C(=O)N[C@@H](CC(C)C)C(=O)N[C@@H](CC(C)C)C(=O)N[C@@H](CCCCN)C(=O)N[C@@H](CCCCN)C(=O)N[C@@H](CC(C)C)C(=O)N[C@@H](CCCCN)C(=O)N[C@@H](CCCCN)C(=O)N[C@@H](CC(C)C)C(N)=O [pepD2M] (Myristoyl-WKKLKKLLKKLKKL-NH2)	significant membranolytic effect								
Ac-WKKIKKIIKKIKKI-NH2 [pepI2]		2 µg/mL	2 µg/mL	16 µg/mL	16 µg/mL				
Ac-WKKLKKLLKKL-NH2 [pepD3]	significant membranolytic effect	16 µg/mL				2 µg/mL	2 µg/mL	2 µg/mL	2 µg/mL
Ac-WKKLKKLLKKLKKL-NH2 [pepD2]	significant membranolytic effect	16 µg/mL				1 µg/mL	1 µg/mL	2 µg/mL	2 µg/mL

Source: PMC8514817, “De Novo Design of Antimicrobial Peptides With a Special Charge Pattern and Their Application in Combating Plant Pathogens” (Frontiers in Plant Science, 2021)
